# Experimental data taken from patent publication US20260224524A1, “A PHARMACEUTICAL COMPOSITION TARGETING MUTANT P53 AND HER2” (DR DOZO LABORATORIES, priority 2023, published 2026).
# Assays:
# [1] = tested on: human tumour xenograft MDA-MB-231; assay: Human tumour xenograft MDA-MB-231 model, tumour volume and relative tumour volume; format: in vivo, mice; parameters: Tumor Volume: unit not given here; conditions: Group B; for RTV (Relative Tumour Volume): 2.5 mg/kg i.v. day 1, 5, 9
# Method: (§1) The therapeutic effect of SACC is evaluated against triple-negative breast cancer cell line MDA-MB-231 by analysing tumour volume and relative tumour volume. The study involved the use of six mice. These mice were administrated treatment according to the following Groups: […]
# [2] = tested on: Human Breast Cancer Cell Line MDA-MB-231; assay: Growth inhibition (% control growth, LC50, TGI, GI50) MDA-MB-231; format: cell-based
# [3] = Human tumour xenograft MDA-MB-231 model, survival; format: in vivo; conditions: for % Survival: Group B, 2.5 mg/kg i.v. day 1, 5, 9
# Method: as §1
# [4] = Human tumour xenograft MDA-MB-231 model, animal body weight; format: in vivo, mice; conditions: for Animal Body Weight: Group B, 2.5 mg/kg i.v. day 1, 5, 9
# Method: as §1
# [5] = tested on: Human Breast Cancer Cell Line MDA-MB-231; assay: Growth inhibition (% control growth, LC50, TGI, GI50) MDA-MB-231; format: cell-based; remark: listed apart in the source
# Method: The therapeutic effect of […] (peak 5) and SA2 (peak 4) is evaluated against human […] cancer cell line MDA-MB-231 by calculating the percentage growth inhibition, drug concentration of test compound needed to inhibit cell growth by 50% (GI50) values.
# The therapeutic effect of SACC is evaluated against human […] cancer cell lines MDA-MB-231 by calculating the percentage growth inhibition, drug concentration of test compound needed to inhibit cell growth by 50% (GI50) values.
compound,measurement,setting,value
"COc1cccc2c1C(=O)c1c(O)c3c(c(O)c1C2=O)C[C@@](O)(C(=O)CO)C[C@@H]3O[C@H]1C[C@H](N)[C@H](O)[C@H](C)O1 [ADR, Adriamycin]",RTV (Relative Tumour Volume),[1]; day 9,0.95
same,RTV (Relative Tumour Volume),[1]; day 15,1.63
same,RTV (Relative Tumour Volume),[1]; day 18,1.93
same,RTV (Relative Tumour Volume),[1]; day 21,2.29
same,RTV (Relative Tumour Volume),[1]; day 25,4.22
same,RTV (Relative Tumour Volume),[1]; day 30,7.30
same,tumour volume (in words),[1]; ADR 2.5 mg/Kg,decreased tumour volume
same,Tumor Volume,"[1]; ADR 2.5 mg/Kg, day 1, Mouse 1",0.06
same,Tumor Volume,"[1]; ADR 2.5 mg/Kg, day 1, Mouse 2",0.05
same,Tumor Volume,"[1]; ADR 2.5 mg/Kg, day 1, Mouse 3",0.06
same,Tumor Volume,"[1]; ADR 2.5 mg/Kg, day 1, Mouse 4",0.05
same,Tumor Volume,"[1]; ADR 2.5 mg/Kg, day 1, Mouse 5",0.06
same,Tumor Volume,"[1]; ADR 2.5 mg/Kg, day 1, Mouse 6",0.06
same,Tumor Volume,"[1]; ADR 2.5 mg/Kg, day 5, Mouse 1",0.05
same,Tumor Volume,"[1]; ADR 2.5 mg/Kg, day 5, Mouse 2",0.07
same,Tumor Volume,"[1]; ADR 2.5 mg/Kg, day 5, Mouse 3",0.06
same,Tumor Volume,"[1]; ADR 2.5 mg/Kg, day 5, Mouse 4",0.06
same,Tumor Volume,"[1]; ADR 2.5 mg/Kg, day 5, Mouse 5",0.05
same,Tumor Volume,"[1]; ADR 2.5 mg/Kg, day 5, Mouse 6",0.06
same,Tumor Volume,"[1]; ADR 2.5 mg/Kg, day 9, Mouse 1",0.05
same,Tumor Volume,"[1]; ADR 2.5 mg/Kg, day 9, Mouse 2",0.08
same,Tumor Volume,"[1]; ADR 2.5 mg/Kg, day 9, Mouse 3",0.04
same,Tumor Volume,"[1]; ADR 2.5 mg/Kg, day 9, Mouse 4",0.04
same,Tumor Volume,"[1]; ADR 2.5 mg/Kg, day 9, Mouse 5",0.06
same,Tumor Volume,"[1]; ADR 2.5 mg/Kg, day 9, Mouse 6",0.05
same,Tumor Volume,"[1]; ADR 2.5 mg/Kg, day 12, Mouse 1",0.06
same,Tumor Volume,"[1]; ADR 2.5 mg/Kg, day 12, Mouse 2",0.10
same,Tumor Volume,"[1]; ADR 2.5 mg/Kg, day 12, Mouse 3",0.05
same,Tumor Volume,"[1]; ADR 2.5 mg/Kg, day 12, Mouse 4",0.05
same,Tumor Volume,"[1]; ADR 2.5 mg/Kg, day 12, Mouse 5",0.06
same,Tumor Volume,"[1]; ADR 2.5 mg/Kg, day 12, Mouse 6",0.07
same,Tumor Volume,"[1]; ADR 2.5 mg/Kg, day 15, Mouse 1",0.07
same,Tumor Volume,"[1]; ADR 2.5 mg/Kg, day 15, Mouse 2",0.16
same,Tumor Volume,"[1]; ADR 2.5 mg/Kg, day 15, Mouse 3",0.07
same,Tumor Volume,"[1]; ADR 2.5 mg/Kg, day 15, Mouse 4",0.06
same,Tumor Volume,"[1]; ADR 2.5 mg/Kg, day 15, Mouse 5",0.08
same,Tumor Volume,"[1]; ADR 2.5 mg/Kg, day 15, Mouse 6",0.11
same,Tumor Volume,"[1]; ADR 2.5 mg/Kg, day 18, Mouse 1",0.07
same,Tumor Volume,"[1]; ADR 2.5 mg/Kg, day 18, Mouse 2",0.21
same,Tumor Volume,"[1]; ADR 2.5 mg/Kg, day 18, Mouse 3",0.07
same,Tumor Volume,"[1]; ADR 2.5 mg/Kg, day 18, Mouse 4",0.07
same,Tumor Volume,"[1]; ADR 2.5 mg/Kg, day 18, Mouse 5",0.07
same,Tumor Volume,"[1]; ADR 2.5 mg/Kg, day 18, Mouse 6",0.16
same,Tumor Volume,"[1]; ADR 2.5 mg/Kg, day 21, Mouse 1",0.05
same,Tumor Volume,"[1]; ADR 2.5 mg/Kg, day 21, Mouse 2",0.23
same,Tumor Volume,"[1]; ADR 2.5 mg/Kg, day 21, Mouse 3",0.08
same,Tumor Volume,"[1]; ADR 2.5 mg/Kg, day 21, Mouse 4",0.11
same,Tumor Volume,"[1]; ADR 2.5 mg/Kg, day 21, Mouse 5",0.13
same,Tumor Volume,"[1]; ADR 2.5 mg/Kg, day 21, Mouse 6",0.17
same,Tumor Volume,"[1]; ADR 2.5 mg/Kg, day 25, Mouse 1",0.08
same,Tumor Volume,"[1]; ADR 2.5 mg/Kg, day 25, Mouse 2",0.31
same,Tumor Volume,"[1]; ADR 2.5 mg/Kg, day 25, Mouse 3",0.33
same,Tumor Volume,"[1]; ADR 2.5 mg/Kg, day 25, Mouse 4",0.24
same,Tumor Volume,"[1]; ADR 2.5 mg/Kg, day 25, Mouse 5",0.17
same,Tumor Volume,"[1]; ADR 2.5 mg/Kg, day 25, Mouse 6",0.29
same,Tumor Volume,"[1]; ADR 2.5 mg/Kg, day 30, Mouse 2",0.53
same,Tumor Volume,"[1]; ADR 2.5 mg/Kg, day 30, Mouse 3",0.55
same,Tumor Volume,"[1]; ADR 2.5 mg/Kg, day 30, Mouse 4",0.29
same,Tumor Volume,"[1]; ADR 2.5 mg/Kg, day 30, Mouse 5",0.28
same,Tumor Volume,"[1]; ADR 2.5 mg/Kg, day 30, Mouse 6",0.40
same,% Control Growth,"[2]; 10 μg/ml, Experiment 2",−89.3%
same,% Control Growth,"[2]; 20 μg/ml, Experiment 1",−85.1%
same,% Control Growth,"[2]; 40 μg/ml, Experiment 1",−80.9%
same,% Control Growth,"[2]; 80 μg/ml, Experiment 3",−71.2%
same,% Survival,[3]; day 1,100%
same,% Survival,[3]; day 5,100%
same,% Survival,[3]; day 9,100%
same,% Survival,[3]; day 12,100%
same,% Survival,[3]; day 15,100%
same,% Survival,[3]; day 18,100%
same,% Survival,[3]; day 21,100%
same,% Survival,[3]; day 25,100%
same,% Survival,[3]; day 30,83%
same,survival rate,[3]; till 25 days,100%
same,Animal Body Weight,[4]; day 1,20.9 Grams
same,Animal Body Weight,[4]; day 5,19.9 Grams
same,Animal Body Weight,[4]; day 9,20.3 Grams
same,Animal Body Weight,[4]; day 12,20.1 Grams
same,Animal Body Weight,[4]; day 15,19.5 Grams
same,Animal Body Weight,[4]; day 18,20.4 Grams
same,Animal Body Weight,[4]; day 21,20.0 Grams
same,Animal Body Weight,[4]; day 25,20.2 Grams
same,Animal Body Weight,[4]; day 30,21.6 Grams
same,change in body weight (in words),[4]; average body weight over 30 days,minimal change in body weight
same,% Control Growth,"[5]; 10 μg/ml, Average Values",−88.7%
same,% Control Growth,"[5]; 10 μg/ml, Experiment 1",−90.5%
same,% Control Growth,"[5]; 10 μg/ml, Experiment 3",−86.3%
same,% Control Growth,"[5]; 20 μg/ml, Average Values",−83.1%
same,% Control Growth,"[5]; 20 μg/ml, Experiment 2",−84.8%
same,% Control Growth,"[5]; 20 μg/ml, Experiment 3",−79.3%
same,% Control Growth,"[5]; 40 μg/ml, Average Values",−81.2%
same,% Control Growth,"[5]; 40 μg/ml, Experiment 2",−82.5%
same,% Control Growth,"[5]; 40 μg/ml, Experiment 3",−80.2%
same,% Control Growth,"[5]; 80 μg/ml, Average Values",−74.8%
same,% Control Growth,"[5]; 80 μg/ml, Experiment 1",−75.2%
same,% Control Growth,"[5]; 80 μg/ml, Experiment 2",−78.1%
same,% Control Growth,"[5]; 10^−4M, Average Values",−69.1%
same,% Control Growth,"[5]; 10^−4M, Experiment 1",−68.3%
same,% Control Growth,"[5]; 10^−4M, Experiment 2",−69.6%
same,% Control Growth,"[5]; 10^−4M, Experiment 3",−69.4%
same,% Control Growth,"[5]; 10^−5M, Average Values",−82.4%
same,% Control Growth,"[5]; 10^−5M, Experiment 1",−80.5%
same,% Control Growth,"[5]; 10^−5M, Experiment 2",−83.4%
same,% Control Growth,"[5]; 10^−5M, Experiment 3",−83.3%
same,% Control Growth,"[5]; 10^−6M, Average Values",−85.0%
same,% Control Growth,"[5]; 10^−6M, Experiment 1",−83.1%
same,% Control Growth,"[5]; 10^−6M, Experiment 2",−86.2%
same,% Control Growth,"[5]; 10^−6M, Experiment 3",−85.8%
same,% Control Growth,"[5]; 10^−7M, Average Values",−87.8%
same,% Control Growth,"[5]; 10^−7M, Experiment 1",−82.8%
same,% Control Growth,"[5]; 10^−7M, Experiment 2",−91.0%
same,% Control Growth,"[5]; 10^−7M, Experiment 3",−89.6%
same,GI50,"[5]; Homo sapiens, calculated from graph",< 10 µg/mL
same,TGI,[5]; calculated from graph,<10 µg/mL
